This is an account of results in US20110245249A1, “Heterocyclically Substituted Anilinopyrimidines” (Bayer CropScience AG, priority 2008, published 2011).

Bounds are passed on as bounds.

The test system of one data set is Phakopsora pachyrhizi. Put plainly: Phakopsora test (soya beans)/protective. Type of data set: in vivo. The following applies: protective, active compound concentration 250 ppm, evaluation 1 day after inoculation. The protocol:
Phakopsora Test (Soya Beans)/Protective
Evaluation is carried out 1 day after the inoculation.

The test system of another data set is Fusarium proliferatum. Put plainly: Growth of Fusarium proliferatum (OD620) in the fumonisin test. Type of data set: cell-based. Particulars: for IC50: Fusarium proliferatum, 144 h, read-out: pI50 growth.
Data set [1] is described as follows: logP by HPLC on reversed-phase columns (EEC Directive 79/831 Annex V.A8). Type of data set: physicochemical. The procedure, abridged:
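Values come from three gradient methods (10% to 95% acetonitrile) on C18 columns following EEC 79/831 Annex V.A8: LC-MS at pH 7.8 (0.001 molar ammonium bicarbonate), LC-MS at pH 2.7 (formic acid 0.1%, also in acetonitrile), and HPLC at pH 2.3 (phosphoric acid 0.1%).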

Data set [2] concerns Production of Fumonisin FB1 by Fusarium proliferatum. The data set can be described thus: Production of Fumonisin FB1 by Fusarium proliferatum. Particulars: Fusarium proliferatum, 144 h; FB1 in liquid medium after 6 days at 20° C., HPLC-MS/MS; read-out: pI50 Fum (converted). Type of data set: cell-based.
Data set [3] deals with Production of DON/acetyl-DON by Fusarium graminearum. The data set can be described thus: microbe, parasite or virus in culture. The data set is classed as cell-based. The following applies: 168 h, 7 days at 28° C., read-out: activity in the inhibition of DON/AcDON.

`COCC1COC(c2cccc(Nc3ncc(C(F)(F)F)c(NC4CC4)n3)c2)O1` (stereo not shown) [Example 105]: the efficacy with Phakopsora pachyrhizi is at least 80%. The compound also came in with a pI50 growth in the data set on Fusarium proliferatum (OD620 at the beginning and after 6 days) of 5.5. In addition, in data set [1] (pH 2.3), the “log p [a]” value was 2.26. For the same compound, in data set [1] (pH 2.7), the “log p [b]” value is 2.74[b]. Further, in data set [1] (pH 7.8), the “log p [c]” value was 3.23.
A word on the chromatographic logP: it is a lipophilicity value derived from retention on a column. Read a high chromatographic logP as higher lipophilicity. `Clc1cnc(Nc2cccc(C3OCCO3)c2)nc1NC1CC1` [Example 1, 5-Chloro-N^4-cyclopropyl-N^2-[3-(1,3-dioxolan-2-yl)phenyl]pyrimidine-2,4-diamine]: the IC50 in data set [2] is 158 nM; in the data set on Fusarium proliferatum it was 398 nM. Besides, the inhibition at 50 µM in data set [3] is over 80%. For the same compound, the chromatographic logP in data set [1] (pH 2.7, log p [b]) was determined as 1.59; in data set [1] (pH 2.7, logP (pH 2.7)) it was 1.59; in data set [1] (pH 7.8, log p [c]), 2.67.
For the compound `CC1(c2cccc(Nc3ncc(Cl)c(NC4CC4)n3)c2)OCCO1` [Example 12, 5-Chloro-N^4-cyclopropyl-N^2-[3-(2-methyl-1,3-dioxolan-2-yl)phenyl]pyrimidine-2,4-diamine], the IC50 in data set [2] is 501 nM; in the data set on Fusarium proliferatum it was 1580 nM. The chromatographic logP came out at 1.9 in data set [1] (pH 2.7, log p [b]); 1.9 in data set [1] (pH 2.7, logP (pH 2.7)); 3.09 in data set [1] (pH 7.8, log p [c]).
